We go through 18 compounds from PubChem BioAssay AID328 (DTP/NCI, 2004).

The subject of the test is BDF1 mice, P388 leukemia ip, median survival T/C. Kind of test: NCI In Vivo Anticancer Drug Screen. Data for tumor model P388 Leukemia (intraperitoneal) in B6D2F1 (BDF1) mice. As to conditions: endpoint: median survival time, higher = longer survival. The method in brief:
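Reported as T/C, where T is the survival measurement in dosed animals and C the same measurement in vehicle controls.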

Where [1] appears, read: dose: 100.0 mg/kg/injection, schedule: Q01DX009 (ip), vehicle: water.
Where [2] appears, read: dose: 200.0 mg/kg/injection, schedule: Q01DX009 (ip), vehicle: water.
[3] abbreviates: dose: 25.0 mg/kg/injection, schedule: Q01DX009 (ip), vehicle: saline with Tween-80.
Setting [4] is: dose: 50.0 mg/kg/injection, schedule: Q01DX009 (ip), vehicle: saline with Tween-80.
The mark [5] stands for this setting: dose: 100.0 mg/kg/injection, schedule: Q01DX009 (ip), vehicle: saline with Tween-80.
The mark [6] stands for this setting: dose: 100.0 mg/kg/injection, schedule: Q01DX009 (ip), vehicle: saline.
Where [7] appears, read: dose: 100.0 mg/kg/injection, schedule: Q04DX003 (ip), vehicle: saline.
[8] abbreviates: dose: 200.0 mg/kg/injection, schedule: Q01DX009 (ip), vehicle: saline.
Setting [9] is: dose: 200.0 mg/kg/injection, schedule: Q04DX003 (ip), vehicle: saline.
The mark [10] stands for this setting: dose: 400.0 mg/kg/injection, schedule: Q01DX009 (ip), vehicle: saline.
Setting [11] is: dose: 400.0 mg/kg/injection, schedule: Q04DX003 (ip), vehicle: saline.
The mark [12] stands for this setting: dose: 25.0 mg/kg/injection, schedule: Q04DX003 (ip), vehicle: saline with Tween-80.
[13] abbreviates: dose: 200.0 mg/kg/injection, schedule: Q01DX009 (ip), vehicle: saline with Tween-80.
Where [14] appears, read: dose: 400.0 mg/kg/injection, schedule: Q01DX009 (ip), vehicle: saline with Tween-80.
Where [15] appears, read: dose: 25.0 mg/kg/injection, schedule: Q01DX009 (ip), vehicle: saline.
Setting [16] is: dose: 50.0 mg/kg/injection, schedule: Q01DX009 (ip), vehicle: saline.

Structures are written as SMILES. “And” between values parts separate entries of the source, which are not always exact repeats. Equal values may be shown once. Inconclusive results and toxic doses are left out.

Consider `COP(=O)(O)C(Cc1ccccc1)NC(=O)OCc1ccccc1` (configuration not stated), for which the T/C (dose: 25.0 mg/kg/injection, schedule: Q01DX005 (ip), vehicle: distilled water + Tween-80) was 100 % of control; the T/C (dose: 50.0 mg/kg/injection, schedule: Q01DX005 (ip), vehicle: distilled water + Tween-80) was 100 % of control; the T/C (dose: 100.0 mg/kg/injection, schedule: Q01DX005 (ip), vehicle: distilled water + Tween-80) is 94 % of control.
Consider `Cn1c[n+](C)ccc1=O`, for which the T/C runs as follows: under setting [1], 97 % of control; (dose: 100.0 mg/kg/injection, schedule: Q04DX003 (ip), vehicle: water) 91 % of control; under setting [2], 107 % of control; (dose: 200.0 mg/kg/injection, schedule: Q04DX003 (ip), vehicle: water) 88 % of control; (dose: 400.0 mg/kg/injection, schedule: Q01DX009 (ip), vehicle: water) 97 % of control; (dose: 400.0 mg/kg/injection, schedule: Q04DX003 (ip), vehicle: water) 89 % of control.
In the case of `OC1CCCC2CCCNC12` (configuration not stated) (tested in a mixture with another compound), the T/C runs as follows: under setting [3], 88 % of control; under setting [4], 103 % of control; under setting [5], 100 % of control.
On to `C(=N\N(c1ccccc1)c1ccccc1)/c1ccc(/C=N/N(c2ccccc2)c2ccccc2)cc1`, for which the T/C runs as follows: (dose: 100.0 mg/kg/injection, schedule: Q04DX003 (ip), vehicle: Klucel (hydroxypropylcellulose) (HPC)) 100 % of control; (dose: 200.0 mg/kg/injection, schedule: Q04DX003 (ip), vehicle: Klucel (hydroxypropylcellulose) (HPC)) 100 % of control; (dose: 400.0 mg/kg/injection, schedule: Q04DX003 (ip), vehicle: Klucel (hydroxypropylcellulose) (HPC)) 95 % of control.
As to `O=C(Oc1ccc([N+](=O)[O-])cc1)c1ccc(C[P+](c2ccccc2)(c2ccccc2)c2ccccc2)cc1`, the T/C reads like this: under setting [6], 109 % of control; under setting [7], 104 % of control; under setting [8], 100 % of control; under setting [9], 100 % of control; under setting [10], 100 % of control; under setting [11], 95 % of control.
Consider `O=C(Nc1cccc2ccccc12)C(F)(F)F`, for which the T/C was 109 % of control (dose: 12.5 mg/kg/injection, schedule: Q01DX009 (ip), vehicle: saline with Tween-80); 104 % of control under setting [3]; 91 % of control under setting [12]; 100 % of control under setting [4]; 99 % of control (dose: 50.0 mg/kg/injection, schedule: Q04DX003 (ip), vehicle: saline with Tween-80); 118 % of control under setting [5]. Besides, for the setting “dose: 100.0 mg/kg/injection, schedule: Q04DX003 (ip), vehicle: saline with Tween-80”, the T/C is 90 % of control and 103 % of control.
Take `Cc1cnc2c(C)cccc2c1/C=C/c1ccc(N(C)C)cc1`: the T/C was 116 % of control under setting [4], 116 % of control under setting [5] and 103 % of control under setting [13].
For the compound `O=C(/C=C/c1ccccc1)c1ccccc1`, the T/C reads like this: under setting [4], 106 % of control; under setting [5], 104 % of control; under setting [13], 108 % of control; under setting [14], 109 % of control.
`O=C(O)C1CCC[N-]C1.O=C(O)C1CCC[N-]C1.[Cl][Pt+2][Cl]` (configuration not stated): the T/C runs as follows: (dose: 5.0 mg/kg/injection, schedule: Q04DX003 (ip), vehicle: saline) 95 % of control; (dose: 10.0 mg/kg/injection, schedule: Q04DX003 (ip), vehicle: saline) 86 % of control; (dose: 20.0 mg/kg/injection, schedule: Q04DX003 (ip), vehicle: saline) 95 % of control.
On to `O=C(NCC(S)c1ccc(Cl)cc1)C(F)(F)F` (configuration not stated), for which the T/C by setting is: (dose: 6.25 mg/kg/injection, schedule: Q04DX003 (ip), vehicle: saline with Tween-80) 100 % of control; (dose: 12.5 mg/kg/injection, schedule: Q04DX003 (ip), vehicle: saline with Tween-80) 100 % of control; under setting [12], 118 % of control.
`CN(C)CCCNc1ccc(O)c2c1C(=O)c1ccccc1C2=O`: the T/C (dose: 6.25 mg/kg/injection, schedule: Q01DX009 (ip), vehicle: saline) is 91 % of control; the T/C (dose: 12.5 mg/kg/injection, schedule: Q01DX009 (ip), vehicle: saline) was 110 % of control and 114 % of control; the T/C under setting [15] was 103 % of control and 109 % of control and 112 % of control; the T/C under setting [7] was 96 % of control; the T/C under setting [9] is 112 % of control.
As for `CNCc1cccs1`, the T/C was 106 % of control under setting [7], 117 % of control under setting [9] and 100 % of control under setting [11].
On to `CC(=O)OC1(C)CC(C)C(=O)C(C(O)CC2CC(=O)NC(=O)C2)C1` (configuration not stated), for which the T/C is 90 % of control (dose: 0.25 mg/kg/injection, schedule: Q01DX010 (ip), vehicle: water); 100 % of control (dose: 2.16 mg/kg/injection, schedule: Q01DX001 (sc), vehicle: saline); 110 % of control (dose: 3.24 mg/kg/injection, schedule: Q01DX001 (ip), vehicle: saline); 123 % of control (dose: 3.6 mg/kg/injection, schedule: Q01DX001 (sc), vehicle: saline); 116 % of control (dose: 5.4 mg/kg/injection, schedule: Q01DX001 (ip), vehicle: saline); 107 % of control (dose: 5.4 mg/kg/injection, schedule: Q04DX003 (ip), vehicle: saline). The T/C by setting is: (dose: 6.0 mg/kg/injection, schedule: Q01DX001 (sc), vehicle: saline) 118 % of control; (dose: 9.0 mg/kg/injection, schedule: Q01DX001 (ip), vehicle: saline) 117 % of control; (dose: 15.0 mg/kg/injection, schedule: Q01DX001 (ip), vehicle: saline) 123 % of control; (dose: 778.0 micrograms/kg/injection, schedule: Q04DX003 (sc), vehicle: saline) 109 % of control; (dose: 1300.0 micrograms/kg/injection, schedule: Q04DX003 (sc), vehicle: saline) 116 % of control; (dose: 2160.0 micrograms/kg/injection, schedule: Q04DX003 (sc), vehicle: saline) 107 % of control. For the same compound, for the setting “dose: 3600.0 micrograms/kg/injection, schedule: Q04DX003 (sc), vehicle: saline”, the T/C is 98 % of control.
Consider `C=CN1C(=O)NC(C)(CC(C)C)C1=O` (configuration not stated), for which the T/C under setting [5] is 93 % of control, the T/C under setting [13] is 104 % of control and the T/C under setting [14] was 104 % of control.
Consider `O=C(O)C(O)C(O)C(=O)O` (configuration not stated), for which the T/C was 100 % of control under setting [6]; 91 % of control under setting [7]; 110 % of control under setting [8]; 100 % of control under setting [9]; 100 % of control under setting [10]; 104 % of control under setting [11].
Take `O=C(O)c1c2c(nc3ccccc13)Cc1ccccc1-2`: the T/C is, setting by setting: (dose: 12.5 mg/kg/injection, schedule: Q01DX009 (ip), vehicle: water) 96 % of control and 97 % of control; under setting [15], 111 % of control; (dose: 25.0 mg/kg/injection, schedule: Q01DX009 (ip), vehicle: water) 88 % of control and 114 % of control; under setting [16], 110 % of control; (dose: 50.0 mg/kg/injection, schedule: Q01DX009 (ip), vehicle: water) 119 % of control; (dose: 90.0 mg/kg/injection, schedule: Q01DX009 (ip), vehicle: Klucel (hydroxypropylcellulose) (HPC)) 163 % of control. In addition, the T/C under setting [1] is 173 % of control and 176 % of control; the T/C (dose: 133.0 mg/kg/injection, schedule: Q01DX009 (ip), vehicle: Klucel (hydroxypropylcellulose) (HPC)) was 186 % of control; the T/C (dose: 200.0 mg/kg/injection, schedule: Q01DX009 (ip), vehicle: Klucel (hydroxypropylcellulose) (HPC)) is 163 % of control; the T/C under setting [2] is 187 % of control.
For `COc1ccc(C=C2c3ccccc3-c3ccccc32)cc1`, the T/C runs as follows: (dose: 100.0 mg/kg/injection, schedule: Q01DX001 (ip), vehicle: saline with Tween-80) 100 % of control; (dose: 200.0 mg/kg/injection, schedule: Q01DX001 (ip), vehicle: saline with Tween-80) 95 % of control; (dose: 400.0 mg/kg/injection, schedule: Q01DX001 (ip), vehicle: saline with Tween-80) 100 % of control.
As for `N=C(N)N.O=S(=O)(O)[O][Al]1[O]S(=O)(=O)[O]1`, the T/C by setting is: under setting [15], 87 % of control; under setting [16], 100 % of control; under setting [6], 95 % of control.
